# pIC50: −log10 of the molar value.
# Columns and labels:
# [1] = test system: IL-1β-induced NF-κB activation; experiment: EMSA of NF-κB in IL-1β-exposed human neural progenitor cells; format: cell-based; conditions: HN progenitor cells, IL-1β 10 ng/ml 3 h
# Method: (§1) Human neural (HN) progenitor cells in primary culture. HN cells were grown to ˜70% confluence (˜50,000 cells per 3.5-cm diameter well) in 6-well COSTAR plates at 37° C., 5% CO2/20% O2/75% N2 in humidified air at 1 atm (normoxic conditions) in NPMM medium (Clonetics CC-4241) supplemented with hFGF, NSF-1, hEGF, GA-1000, as described by the manufacturer (Clonetics, Walkersville, Md.). HN cells tested negative for HIV-1, hepatitis B and C, mycoplasma, bacteria, yeast, and fungi, and positive for the glial and neuronal markers GFAP, MAP2, and β-tubulin III (Clonetics). […]
# (§2) Electrophoretic mobility-shift assay (EMSA) of human AP1, HIF-1α, NF-κBp50/p65, and STAT-1α. Nuclear protein extracts (NPXTs) were prepared from one to three 3.5 cm-diameter wells of HN cells and quantitated. NPXTs (5 μg) derived from HN cells were incubated with[γ-^32P]-ATP (˜3000 Ci/mmol)-end-labeled AP1, HIF-1α, NF-κκBp50/p65, or STAT-1α consensus and mutant oligonucleotides in 5-μl volumes, reacted for 30 min on ice, analyzed on 5% or 10% acrylamide/90 mM Tris-borate pH 8.4, 1 mM EDTA (TBE) gels, dried onto 2-mm Whatman filter paper at 80° C. for 2 h, and phosphorimaged using a Typhoon Variable Mode Imager (Amersham Pharmacia Biotech, Piscataway, N.J. ).
# [2] = test system: IL-1β-induced HIF-1α activation; experiment: EMSA of HIF-1α in IL-1β-exposed human neural progenitor cells; format: cell-based; conditions: HN progenitor cells; IL-1β 10 ng/ml 3 h
# Method: as §1, §2
# Bcl-xL = experiment: Western blot of Bcl-xL in ARPE-19 cells under TNFα/H2O2; format: cell-based, human; conditions: 50 nM; TNFα plus H2O2 (400 or 800 μM) 6 h
# Method: Analysis of pro- and anti-apoptotic proteins in ARPE-19 cells: Bcl-2 family proteins were analyzed by Western-blot analysis. In brief, 20-μg equivalents of each cell extract were subjected to electrophoresis on a 8-16% gel (Promega, Madison, Wis.) at 125 volts for 2 h. The proteins were transferred to nitrocellulose membrane at 30 volts for 1 h at 4° C. The membranes were subjected to treatment with primary antibodies of Bcl-2, Bcl-xL, Bax, and Bad for 1 h at room temperature, and probed 30 min with secondary antibody, goat anti-rabbit Ig:HRPO and HRP-conjugated anti-biotin antibody. (BD Sciences—Pharminogen, San Diego, Calif.) Then proteins were evaluated using an ECL kit. (Amersham Biosciences Corp., Piscataway, N.J.)
# Using the same TNFα/H2O2 concentrations, Bcl-2 proteins were assayed. Cells were grown for 72 h after plating, placed in serum-free medium for 1 h, then incubated with TNFα/H2O2 for 6 h. Protein expression and Western-blot analysis were performed as described in Example 13. Data in FIGS. 14A, 14B, 14C and 14D represent four independent experiments with triplicate samples in each case. Anti-apoptotic protein Bcl-xL was enhanced in ARPE-19 cells by TNFα/H2O2 (800 μM) (FIG. 14B, first bar), whereas Bcl-2 was not changed (FIG. 14A, first bar).
# human COX-2 promoter = experiment: IL-1β-induced human COX-2 promoter-luciferase assay in ARPE-19 cells; format: cell-based; conditions: IL-1β 10 ng/ml 8 h, NPD1 0.05 to 100 nM, read-out: IC50, IL-1β induction of the COX-2 promoter
# Method: Transfection of ARPE-19 cells with human COX-2 (830 bp): ARPE-19 cells growing in 12-well plates were transfected with 5 μg human COX-2-luciferase construct (830 bp) by FuGENE-6 (obtained from Drs. S. Prescott and D. Dixon, Vanderbilt University, Nashville, Tenn.). Four hours later, the medium containing FuGENE-6 was removed, fresh DMEM-F12 (10% FBS) was added, and the cells further incubated 8 h at 37° C. Transfected cells were serum-starved for 4 h and challenged with IL-1β (10 ng/ml) for 8 h with or without NPD1. NPD1 was added at concentrations from 0.05 to 100 nm. Eight hours later, cell homogenates were made, protein concentrations were adjusted, and luciferase assays were performed using 20 μg equivalent protein in Monolight 2010 for 20 seconds with luciferin as substrate, as described below.
# Luciferase assay: The medium containing IL-1β and NPD1 was removed, and the cells were washed with 1 ml cold PBS. The cells were scraped and centrifuged 2500×g for 20 minutes at 4° C. The cell pellet was re-suspended in 500 μl of 2×luciferase assay buffer (ALL, 0.2 mM tricine, 2 mM DTT, 30 mM MgSO4 and 10 mM ATP). […] The relative light units were determined by using an ALL luminometer recording over a 20-second interval, as described in Bazan, N. G., Fletcher, B. S., Herschman, H. R. & Mukherjee, P. K. (1994) Proc. Natl. Acad. Sci. U.S.A. 91:5252-5256. […]
# caspase-3 = experiment: Caspase-3 cleavage in ARPE-19 cells stably transfected with lentivirus DEVD construct; conditions: 50 nM
# Source text: The values shown are the average of triplicate samples in three independent experiments.
smiles,measurement,setting,value
"CC/C=C\C[C@H](O)\C=C/C=C/C=C/[C@H](O)C/C=C\C/C=C\CCC(=O)O [NPD1, 10,17S-docosatriene]",concentration at which inhibitory effect on NF-κB is seen (as low as),[1],0.3 nM
same,effect on IL-1β-induced NF-κB activation,[1]; concentration-dependent,down-regulated
same,effect on IL-1β-induced HIF-1α activation,[2],"but not IL-1β-induced HIF-1α activation, was inhibited"
same,effect on Bcl-xL expression,Bcl-xL,increased expression
same,pIC50,human COX-2 promoter,> 8.30
same,inhibition of caspase-3 activation,caspase-3; 400 μM H2O2 with TNFα,60%
same,inhibition of caspase-3 activation,caspase-3; 800 μM H2O2 with TNFα,50%

# — patent US20050075398A1, “Neuroprotectin D1 protects against cellular apoptosis, stroke damage, alzheimer's disease and retinal diseases” (priority 2003, published 2005)
